From patent US9796962B2, “Method for generating pancreatic hormone-producing cells” (Kyoto University, priority 2013, dated 2017)
Structures can show the parent of a compound that is named as a salt.

How the values were obtained:
[1] = system: Human ES cell line KhES3; test: Differentiation of human ES cell line KhES3 into insulin producing cells, flow cytometry; assay type: cell-based; conditions: step 3 with 4 factors plus 0.001-20 mM sodium cromoglicate, 12 days
From the text: Human ES cell line KhES3 was obtained from Kyoto University and maintained in the manner as shown in H. Suemori et al. (2006), Biochem. Biophys. Res. Commun., 345:926-932, the contents of this document is herein incorporated by reference. The cells of KhES3 were differentiated into insulin producing cells according to the steps shown below. The colonies of the human ES cell line grown to approximately 70% confluent in the culture plate were dissociated from the plate by using CTK solution (Reprocell). The dissociated colonies were then divided into single cells using Accutase™ and seeded in 24 well plates (Greiner) at 2.0×10^5/well. The cells were cultured in RPMI medium containing 2% FBS added with activin A (100 ng/ml) and CHIR99021 (3 μM) for 5 days. During this period, the medium was changed with the same fresh medium on the third and the fourth days. The cells obtained in Step 1 were cultured in improved MEM Zinc Option medium containing 1% B-27 (Invitrogen Corp.) comprising dorsomorphin (1 μM), retinoic acid (2 μM), and SB431542 (10 μM) for 6 days. During this period, the medium was changed with the same fresh medium every two days. […] The obtained cells were treated by using BD Cytofix/Cytoperm™ Kit and then, stained with polyclonal guinea-pig anti Swine insulin antibody/anti-serum (DAKO) and analyzed using flow cytometry to determine the number of insulin producing cells.

[2] = system: cell line 201B7; test: Ki67 staining, ability of differentiated cells to proliferate; assay type: cell-based, human; conditions: 10 mM, 12 days in step 3, FIG. 3
Method: Cells from cell line 201B7 were subjected to steps 1 and 2 in the same manner as above and cultured for 12 days in step 3. The obtained cells were stained with Ki67 and the ability of the cells to proliferate was evaluated. […] In addition, the obtained cells were treated by using BD Cytofix/Cytoperm™ Kit and stained with monoclonal anti-glucagon clone K79bB10 (SIGMA). The cells were analyzed by flow cytometry to determine the number of the glucagon positive cells.

[3] = system: iPS cell lines 418C1, 409B2 and 201B7; test: Differentiation of three iPS cell lines into insulin positive cells; assay type: cell-based, human; conditions: 10 mM in step 3 vs control; all three iPS cell lines; FIG. 2A
From the text: Three iPS cell lines, 418C1 and 409B2 (Okita K, et al, Nat Methods. 2011 8:409-412) and 201B7, all of which were generated from fibroblast cells, can be obtained from Center for iPS Cell Research and Application, Kyoto University. The iPS cell lines obtained from Kyoto University were differentiated into insulin positive cells by subjecting the cells to the same steps as those in Examples 1 and 2 with the exception that the concentration of sodium cromoglicate in the culture medium used in step 3 was 10 mM.

[4] = system: Human iPS cell line 201B7; test: Differentiation of 201B7 with sodium cromoglicate used solely or with single additives in step 3; assay type: cell-based
Method: Human iPS cell line 201B7 was used. The cells were differentiated into insulin producing cells by the following steps. The colonies of the iPS cell line was grown to approximately 80-90% confluence in the culture plate and dissociated from the plate by using CTK solution (Reprocell). The dissociated colonies were then divided into single cells using Accutase™ and seeded in 24 well plates (Greiner) at 2.0×10^5/well. The cells were cultured in RPMI medium containing 1% B-27 added with activin A (100 ng/ml), CHIR99021 (1 μM) and Y-27632 (10 μM) for 2 days. Then, the cells were further cultured in RPMI medium containing 1% B-27 added with activin A (100 ng/ml) and CHIR99021 (1 μM) for more 3 days (Day 5). During this period, the medium was changed with the same fresh medium on the third (Day 3) and the fourth days (Day 4). The cells obtained in Step 1 were cultured in improved MEM Zinc Option medium containing 1% B-27 added with dorsomorphin (1 μM), retinoic acid (2 μM), and SB431542 (10 μM) for 6 days (Day 11). During this period, the medium was changed with the same fresh medium every two days. The cells obtained in Step 2 were cultured in improved MEM Zinc Option medium containing 1% B-27 added with sodium cromoglicate (10 mM) for more 8 days (Day 19). During this period, the medium was changed with the same fresh medium every four days. The ratio of insulin expression versus β-Actin expression was determined by using quantitative PCR. […] Then, the effect of sodium cromoglicate when used in combination with each of the four additives used in EXAMPLE 4: forskolin (10 μM), nicotinamide (10 mM), dexamethasone (10 μM), and ALK5 inhibitor II (5 μM) was determined.

[5] = system: Pancreatic anlages from mice embryos E12.5, E14.5 and E16.5; test: Differentiation of fetal pancreatic anlages into insulin producing cells (insulin promoter GFP); assay type: cell-based; conditions: 10 mM with 4 factors
Method: Pancreatic anlages were obtained from mice embryos E12.5, E14.5 and E16.5 that express GFP on the downstream of the insulin promoter. Each pancreatic anlage was cultured in a suspension culture in Improved MEM Zinc Option medium containing 1% B-27 added with forskolin (10 μM), nicotinamide (10 mM), dexamethasone (10 μM), ALK5 inhibitor II (5 μM) and sodium cromoglicate (10 mM) for 4 days.
Further, expression of insulin and Neurog 3 in thus obtained cells were analyzed by PCR and confirmed that the expression of those genes was increased in the cells cultured with sodium cromoglicate (FIG. 7C).

[6] = system: Human iPS cell line 201B7; test: Differentiation of 201B7 with 8 days step 3: marker gene PCR, immune staining, insulin amount; assay type: cell-based
Method: Human iPS cell line 201B7 was used. The cells were differentiated into insulin producing cells by the following steps. The colonies of the iPS cell line was grown to 80-90% confluence in the culture plate and dissociated from the dish by using CTK solution (Reprocell). The dissociated colonies were then divided into single cells using Accutase™ and seeded in 24 well plates (Greiner) at 2.0×10^5/well.
The cells were cultured in RPMI medium containing 1% B-27 added with activin A (100 ng/ml), CHIR99021 (1 μM) and Y-27632 (10 μM) for 2 days. Then, the cells were further cultured in RPMI medium containing 1% B-27 added with activin A (100 ng/ml) and CHIR99021 (1 μM) for more 3 days (Day 5). During this period, the medium was changed with the same fresh medium on the third (Day 3) and the fourth days (Day 4).
The cells obtained in Step 1 were cultured in improved MEM Zinc Option medium containing 1% B-27 added with dorsomorphin (1 μM), retinoic acid (2 μM), and SB431542 (10 μM) for 6 days (Day 11). During this period, the medium was changed with the same fresh medium every two days.
The cells obtained in Step 2 were cultured in improved MEM Zinc Option medium containing 1% B-27 added with forskolin (10 μM), nicotinamide (10 mM), dexamethasone (10 μM), ALK5 inhibitor II ((2-(3-(6-Methylpyridin-2-yl)-1H-pyrazol-4-yl)-1,5-naphthyridine)) (5 μM) and sodium cromoglicate (10 mM) for more 8 days (Day 19). During this period, the medium was changed with the same fresh medium every four days.
The cells at each step were collected, i.e. on Day 0, Day 5, Day 11 and Day 19, and the expressions of marker genes were determined by PCR (FIG. 5B). In the group where cells were cultured in the presence of sodium cromoglicate in step 3, the expression of NGN3 and GHRE (Ghrelin) were confirmed. The expression of SST (somatostatin) in the group where cells were cultured in the presence of sodium cromoglicate in step 3 was higher than that in the group where cells were cultured in the absence of sodium cromoglicate.
Further, the cells were subjected to immune staining and confirmed the production of proteins corresponding to the marker genes (FIG. 5C). The amount of insulin produced by the cells obtained by culturing the cells in the presence of sodium cromoglicate in step 3 and that produced by the cells obtained by culturing in the absence of sodium cromoglicate were compared, and the amount of insulin produced by the cells obtained with sodium cromoglicate was higher than that produced by the cells obtained without sodium cromoglicate (FIG. 5D).
The cells were subjected to immune staining and the production of pancreatic hormones was confirmed (FIGS. 6A and 6B).

[7] = system: Human iPS cell line 201B7; test: Differentiation of human iPS cell line 201B7 into insulin producing cells (step 3 with 4 factors), flow cytometry; assay type: cell-based
Method: Human iPS cell line 201B7 (this cell line can be obtained from Center for iPS Cell Research And Application, Kyoto University, Takahashi K et al, Cell. 2007 131:861-72., the contents of this document is incorporated herein by reference) was used. The iPS cells were differentiated into insulin producing cells by using the following steps. The colonies of the iPS cell line were grown to 70% confluent in the culture plate and dissociated from the plate by using CTK solution (Reprocell). The dissociated colonies were then divided into single cells using Accutase™ and seeded in 24 well plates (Greiner) at 2.0×10^5/well. The cells were cultured in RPMI medium containing 2% FBS added with activin A (100 ng/ml) and CHIR99021 (3 μM) for 5 days. During this period, the medium was changed with the same fresh medium on the third and the fourth days. The cells obtained in Step 1 were cultured in improved MEM Zinc Option medium containing 1% B-27 (Invitrogen Corp.) added with dorsomorphin (1 μM), retinoic acid (2 μM), and SB431542 (10 μM) for 6 days. During this period, the medium was changed with the same fresh medium every two days. The cells obtained in Step 2 were cultured in improved MEM Zinc Option medium containing 1% B-27 (Invitrogen Corp.) added with forskolin (10 μM), nicotinamide (10 mM), dexamethasone (10 μM), ALK5 inhibitor II ((2-(3-(6-methylpyridin-2-yl)-1H-pyrazol-4-yl)-1,5-naphthyridine)) (5 μM) and sodium cromoglicate (0.001 mM, 0.01 mM, 0.1 mM, 1 mM, 5 mM, 10 mM or 20 mM) for more 12 days. During this period, the medium was changed with the same fresh medium every four days. The obtained cells analyzed using flow cytometry to determine the number of insulin producing cells in the same manner as Example 1. The addition of 1 mM or more sodium cromoglicate in the culture medium increased the ratio of insulin positive cells and the maximum insulin positive cell-ratio was obtained when 10 mM sodium cromoglicate was added (FIG. 1A). Insulin production was confirmed by immune staining of the cells (FIG. 1B). Further, cells were stained with anti-human C-peptide antibody (Peninsula Laboratories LLC.) and analyzed by flow cytometry to see the production of C-peptide which is obtained by processing of pro-insulin. […] The highest ratio of the insulin positive cells was obtained by 12 days-culture in step 3. […] (FIG. 2B) Cells from cell line 201B7 were subjected to steps 1 and 2 in the same manner as above and cultured for 12 days in step 3. The obtained cells were stained with Ki67 and the ability of the cells to proliferate was evaluated. […] In addition, the obtained cells were treated by using BD Cytofix/Cytoperm™ Kit and stained with monoclonal anti-glucagon clone K79bB10 (SIGMA). The cells were analyzed by flow cytometry to determine the number of the glucagon positive cells.

[8] = PCR, 10 mM in step 3, 8 days, FIG. 5B
[9] = immune staining, Day 19, FIGS. 6A and 6B

With `O=C(O)c1cc(=O)c2c(OCC(O)COc3cccc4oc(C(=O)O)cc(=O)c34)cccc2o1` [sodium cromoglicate, sodium salt of 1,3-Bis(2-carboxychromon-5-yloxy)-2-hydroxypropane] the “ratio of insulin positive cells” value [1] was “increased the ratio of insulin positive cells in a concentration dependent manner”, the “number of Ki67 positive cells, presence vs absence” value [2] was “no substantial difference” and the “ratio of insulin positive cells” value [3] was “ratio of insulin positive cells were increased”. For the same compound, the “expression of insulin in combination with each single additive” value ([4]; combined with forskolin (10 μM), nicotinamide (10 mM), dexamethasone (10 μM) or ALK5 inhibitor II (5 μM)) was “confirmed in all 4 combinations, although the amount of the expression was not so high”, the “effect on the agents' induction of insulin producing cells in combination” value ([4]; combined with forskolin, nicotinamide, dexamethasone or ALK5 inhibitor II) was “enhances the effects of all 4 agents” and the “amount of insulin positive cells” value ([4]; immune staining, 10 mM alone in step 3, 8 days, FIG. 8C) was “higher”. The “ratio of insulin expression versus β-Actin expression, presence vs absence” value ([4]; quantitative PCR, 10 mM alone in step 3, 8 days, FIG. 8B) was “higher”, the “ratio of GFP positive cells” value ([5]; suspension culture 4 days, E12.5, E14.5, E16.5, FIG. 7B) was “increased the ratio of GFP positive cells in each embryonic pancreatic anlage” and the “expression of Neurog 3” value ([5]; PCR, 4 days, FIG. 7C) was “increased”. The expression of insulin ([5]; PCR, 4 days, FIG. 7C) was “increased”, the “amount of insulin produced by the cells, presence vs absence” value ([6]; Day 19, 4Fs plus sodium cromoglicate vs 4Fs, FIG. 5D) was “higher” and the “expression of GHRE (Ghrelin)” value [6, 8] was “confirmed”. For the same compound, the “expression of NGN3” value [6, 8] was “confirmed”, the “expression of SST (somatostatin), presence vs absence” value [6, 8] was “higher” and the expression of glucagon [6, 9] was “increased”. For the same compound, the expression of insulin [6, 9] was “increased”, the expression of somatostatin [6, 9] was “increased” and the “ratio of insulin positive cells by culture period in step 3” value ([7]; 10 mM, 8, 12 and 16 days in step 3, FIG. 2B) was “increased in the groups cultured for 8 days, 12 days and 16 days”. The “effect on ratio of insulin positive cells, 4 days in step 3” value ([7]; 10 mM, 4 days in step 3, FIG. 2B) was “also confirmed, although the efficiency was low”, the “ratio of insulin positive cells” value ([7]; 10 mM, 12 days in step 3, FIG. 4) was “increased the ratio of both insulin positive cells and glucagon positive cells” and the “ratio of glucagon positive cells” value ([7]; 10 mM, 12 days in step 3, anti-glucagon flow cytometry, FIG. 4) was “increased the ratio of both insulin positive cells and glucagon positive cells”. The “culture period in step 3 giving the highest ratio of insulin positive cells” value ([7]; 10 mM, FIG. 2B) was 12 days, the “production of C-peptide” value ([7]; anti-human C-peptide antibody, flow cytometry, FIG. 1C) was “increased by addition of sodium cromoglicate in a dose dependent manner” and the “concentration giving the maximum insulin positive cell-ratio” value ([7]; step 3 12 days, FIG. 1A) was 10 mM. The “concentration in the culture medium that increased the ratio of insulin positive cells” value ([7]; step 3 12 days, FIG. 1A) was no less than 1 mM.
